From patent publication US11389466B2 (priority 2017, dated 2022)
“And” between values parts separate entries of the source, which are not always exact repeats. Equal entries are not always repeated. Where two headings read alike, the source gives them in different places.

Legend:
AFL lectin = AFL lectin (Aspergillus fumigatus, UniProt Q4WW81); assay: biochemical; assay type: binding; conditions: for Stoichiometry: amount of ligand bound to a single protein; for β (β-factor, relative potency per ligand): β=(Kd)monovalent/[(Kd)multivalent×Valency], calculated from methylfucoside
Chain of AFL lectin (Q4WW81 whole entry): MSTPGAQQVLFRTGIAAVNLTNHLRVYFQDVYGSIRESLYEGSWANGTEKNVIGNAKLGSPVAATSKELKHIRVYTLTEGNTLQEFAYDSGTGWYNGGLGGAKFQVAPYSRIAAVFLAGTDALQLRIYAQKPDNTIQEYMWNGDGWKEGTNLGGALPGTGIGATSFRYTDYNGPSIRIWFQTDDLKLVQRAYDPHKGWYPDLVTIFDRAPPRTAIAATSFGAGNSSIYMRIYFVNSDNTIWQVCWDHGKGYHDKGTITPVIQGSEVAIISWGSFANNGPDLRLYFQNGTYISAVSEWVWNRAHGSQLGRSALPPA

[1] = system: Aspergillus fumigatus conidia (adhesion on pneumocytes A549); assay type: cell-based
[2] = Table 2, second batch of purified AFL protein

Structure (SMILES)	Kd (AFL lectin) [nM]	−TΔS (AFL lectin; Table 1, first AFL batch) [kcal/mol]	−ΔG (AFL lectin; Table 1, first AFL batch) [kcal/mol]	−ΔH (AFL lectin; Table 1, first AFL batch) [kcal/mol]	Stoichiometry (AFL lectin; Table 1, first AFL batch)	N (stoichiometry) (AFL lectin; [2])	−TΔS (AFL lectin; [2]) [kcal/mol]	−ΔG (AFL lectin; [2]) [kcal/mol]	−ΔH (AFL lectin; [2]) [kcal/mol]	Kd (AFL lectin; [2]) [nM]	β (β-factor, relative potency per ligand) (AFL lectin)	further results
CC1OC(OCc2cn(CCOCCOCCOCCSCC[Si]34O[Si]5(CCSCCOCCOCCOCCn6cc(COC7OC(C)C(O)C(O)C7O)nn6)O[Si]6(CCSCCOCCOCCOCCn7cc(COC8OC(C)C(O)C(O)C8O)nn7)O[Si](CCSCCOCCOCCOCCn7cc(COC8OC(C)C(O)C(O)C8O)nn7)(O3)O[Si]3(CCSCCOCCOCCOCCn7cc(COC8OC(C)C(O)C(O)C8O)nn7)O[Si](CCSCCOCCOCCOCCn7cc(COC8OC(C)C(O)C(O)C8O)nn7)(O4)O[Si](CCSCCOCCOCCOCCn4cc(COC7OC(C)C(O)C(O)C7O)nn4)(O5)O[Si](CCSCCOCCOCCOCCn4cc(COC5OC(C)C(O)C(O)C5O)nn4)(O6)O3)nn2)C(O)C(O)C1O (stereo not drawn) [Compound 40]	400 ± 70	–	–	–	–	–	–	–	–	–	–	N (stoichiometry) (AFL lectin): 0.84 ± 0.02; −TΔS (AFL lectin): 51.82 ± 4.04 kcal/mol; −ΔG (AFL lectin): 8.75 ± 0.096 kcal/mol; −ΔH (AFL lectin): 60.44 ± 4.06 kcal/mol
CO[C@@H]1O[C@@H](C)[C@@H](O)[C@@H](O)[C@@H]1O [αMeFuc, methylfucoside, reference compound]	–	6.41	4.04	11.5	5	3.3 ± 0.42	9.97 ± 1.48	5.4 ± 0.0048	15.4 ± 1.48	–	–	Kd (AFL lectin; Table 1, first AFL batch, read-out: Kd): 517000 nM; Kd (AFL lectin; Table 2, second batch of purified AFL protein, read-out: Kd): 110000 nM
CC1OC(OCCOCCOCCOCCOCc2cn(CC3OC4OC5C(Cn6cc(COCCOCCOCCOCCOC7OC(C)C(O)C(O)C7O)nn6)OC(OC6C(Cn7cc(COCCOCCOCCOCCOC8OC(C)C(O)C(O)C8O)nn7)OC(OC7C(Cn8cc(COCCOCCOCCOCCOC9OC(C)C(O)C(O)C9O)nn8)OC(OC8C(Cn9cc(COCCOCCOCCOCCOC%10OC(C)C(O)C(O)C%10O)nn9)OC(OC9C(Cn%10cc(COCCOCCOCCOCCOC%11OC(C)C(O)C(O)C%11O)nn%10)OC(OC3C(O)C4O)C(O)C9O)C(O)C8O)C(O)C7O)C(O)C6O)C(O)C5O)nn2)C(O)C(O)C1O (stereo not drawn) [Compound 30]	–	43.3 ± 1.9	9.18 ± 0.048	52.6 ± 1.9	0.77 ± 0.04	0.95 ± 0.02	40.49 ± 0.14	9.39 ± 0.072	49.93 ± 0.239	130 ± 10	479	Kd (AFL lectin; Table 1, first AFL batch): 180 nM; Kd (AFL lectin; first AFL batch): 180 nM; Kd values (in words) (AFL lectin; first AFL batch): sub-micromolar range; enthalpic contribution, times higher than the reference monovalent compound 33 (AFL lectin; first AFL batch): 3.7; increase of the −TΔS factor versus the reference monovalent compound (AFL lectin; first AFL batch): 4.7
C[C@@H]1O[C@@H](OCc2cn(CCOCCOCCOCCn3cc(CO[C@@H]4O[C@@H](C)[C@@H](O)[C@@H](O)[C@@H]4O)nn3)nn2)[C@@H](O)[C@H](O)[C@@H]1O [Compound 24]	3800 ± 300	11 ± 0.72	7.41 ± 0.048	18.4 ± 0.72	2.12 and 2.12 ± 0.03	–	–	–	–	–	68	decrease of the adhesion of the conidia ([1]; 100 μM in fucose equivalent): 37%
CC1OC(OCCOCCOCc2cn(CC3OC4OC5C(Cn6cc(COCCOCCOC7OC(C)C(O)C(O)C7O)nn6)OC(OC6C(Cn7cc(COCCOCCOC8OC(C)C(O)C(O)C8O)nn7)OC(OC7C(Cn8cc(COCCOCCOC9OC(C)C(O)C(O)C9O)nn8)OC(OC8C(Cn9cc(COCCOCCOC%10OC(C)C(O)C(O)C%10O)nn9)OC(OC9C(Cn%10cc(COCCOCCOC%11OC(C)C(O)C(O)C%11O)nn%10)OC(OC3C(O)C4O)C(O)C9O)C(O)C8O)C(O)C7O)C(O)C6O)C(O)C5O)nn2)C(O)C(O)C1O (stereo not drawn) [Compound 29]	–	30 ± 0.14	8.48 ± 0.024	38.5 ± 0.24	1.01 ± 0.02	1.20 ± 0.09	32.53 ± 3.61	8.58 ± 0.048	41.06 ± 3.66	530 ± 40	144	formation of spore agglomerates (microscope observation) ([1]; A. fumigatus spores, compound 29 at 10 μM): formation of A. fumigatus spore agglomerates; Kd (AFL lectin; Table 1, first AFL batch): 600 nM; Kd values (in words) (AFL lectin; first AFL batch): sub-micromolar range; enthalpic contribution, times higher than the reference monovalent compound 33 (AFL lectin; first AFL batch): 2.7; increase of the −TΔS factor versus the reference monovalent compound (AFL lectin; first AFL batch): 3.3
C[C@@H]1O[C@@H](OCc2cn(CCOCCOCCOCCOCCOCCOCCOCCOCCOCCOCCOCCn3cc(CO[C@@H]4O[C@@H](C)[C@@H](O)[C@@H](O)[C@@H]4O)nn3)nn2)[C@@H](O)[C@H](O)[C@@H]1O [Compound 26]	550	8.6 ± 0.14	8.58 ± 0.22	17.7 ± 1.4	2.35 and 2.35 ± 0.31	–	–	–	–	–	470	residual adhesion of the conidia on the pneumocytes ([1]; 10 μM in fucose equivalent): 76%
C[C@@H]1O[C@@H](OCc2cn(CCOCCOCCOCCO)nn2)[C@@H](O)[C@H](O)[C@@H]1O [Compound 33, reference compound]	167000	9.08 ± 2.2	5.26 ± 0.24	14.3 ± 1.9	4.0 ± 0.3	–	–	–	–	–	3	anti-adhesive activity (in words) ([1]; concentrations of 1 and 10 μM in fucose equivalent): absence of anti-adhesive activity
CC1OC(OCc2cn(CC3OC4OC5C(Cn6cc(COC7OC(C)C(O)C(O)C7O)nn6)OC(OC6C(Cn7cc(COC8OC(C)C(O)C(O)C8O)nn7)OC(OC7C(Cn8cc(COC9OC(C)C(O)C(O)C9O)nn8)OC(OC8C(Cn9cc(COC%10OC(C)C(O)C(O)C%10O)nn9)OC(OC9C(Cn%10cc(COC%11OC(C)C(O)C(O)C%11O)nn%10)OC(OC3C(O)C4O)C(O)C9O)C(O)C8O)C(O)C7O)C(O)C6O)C(O)C5O)nn2)C(O)C(O)C1O (stereo not drawn) [Compound 44]	–	–	–	–	–	1.36 ± 0.01	21.6 ± 0.621	7.82 ± 0.17	29.37 ± 0.454	1940 ± 500	–	–
OC[C@H]1O[C@@H]2O[C@H]3[C@H](O)[C@@H](O)[C@@H](O[C@H]4[C@H](O)[C@@H](O)[C@@H](O[C@H]5[C@H](O)[C@@H](O)[C@@H](O[C@H]6[C@H](O)[C@@H](O)[C@@H](O[C@H]7[C@H](O)[C@@H](O)[C@@H](O[C@H]1[C@H](O)[C@H]2O)O[C@@H]7CO)O[C@@H]6CO)O[C@@H]5CO)O[C@@H]4CO)O[C@@H]3CO [free α-cyclodextrine, α-cyclodextrine, reference compound]	–	–	–	–	–	–	–	–	–	–	–	affinity for the AFL lectin (in words) (AFL lectin): no affinity
